The values that follow come from PMC11956017, “Design of Benzyl-triazolopyrimidine-Based NADPH Oxidase Inhibitors Leads to the Discovery of a Potent Dual Covalent NOX2/MAOB Inhibitor” (Journal of Medicinal Chemistry, 2025).

Entries after “also recorded” stand apart in the source; their conditions may differ. Marks after values point to notes of the source that are not given here.

Data set [1] concerns dehydrogenase domain of csNOX5. In words: NADPH depletion assay on csNOX5 dehydrogenase domain. It counts as biochemical, Cylindrospermum stagnale. To be noted: 100 μM inhibitor; 1 μM purified protein, 250 μM NADPH.
Another data set deals with NOX4. To be noted: cited from earlier work.
The next data set concerns NOX1. The following applies: cited from earlier work.
Another data set addresses NOX2 (Homo sapiens, UniProt P04839). Also on record: NOX2 was expressed as native protein in X-CGD PLB-985 cells transduced with the RD114 pseudotyped MFGS-NOX2 vector; expressed in transfected cells; host or cells: X-CGD PLB-985 cells transduced with MFGS-NOX2; isolated membranes; Cytosolic proteins made in E. coli. The following applies: cited from earlier work.
The next data set relates to NOX5. The following applies: cited from earlier work.
In a further data set the target is T1, human MAOB (Homo sapiens, UniProt P27338).
T1 construct: made in house; host or cells: Pichia pastoris
T1 sequence (P27338 1-520): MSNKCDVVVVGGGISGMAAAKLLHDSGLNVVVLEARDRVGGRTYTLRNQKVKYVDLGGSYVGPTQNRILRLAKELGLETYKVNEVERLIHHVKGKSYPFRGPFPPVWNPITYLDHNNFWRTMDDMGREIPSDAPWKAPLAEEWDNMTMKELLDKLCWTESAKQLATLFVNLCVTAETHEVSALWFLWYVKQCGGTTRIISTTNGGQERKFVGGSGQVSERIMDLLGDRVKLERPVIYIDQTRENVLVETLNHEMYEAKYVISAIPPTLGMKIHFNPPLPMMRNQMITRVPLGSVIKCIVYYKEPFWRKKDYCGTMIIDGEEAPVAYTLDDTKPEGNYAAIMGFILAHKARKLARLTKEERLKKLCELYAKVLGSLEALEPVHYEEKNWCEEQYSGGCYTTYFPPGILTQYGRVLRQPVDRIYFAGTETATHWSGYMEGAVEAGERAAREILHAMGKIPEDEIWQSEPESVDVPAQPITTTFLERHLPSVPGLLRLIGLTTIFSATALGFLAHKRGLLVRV
Kind of data set: Purified MAOB, Amplex Red/horseradish peroxidase coupled assay. To be noted: 10 nM MAOB, 1 mM benzylamine. It counts as biochemical. The protocol:
(§1) IC50 values on human MAOA and human MAOB were determined using the Amplex Red/horseradish peroxidase coupled assay. […] Measurements were performed using a ClarioStar plate reader (excitation 572 nm and emission 583 nm) (BMG Labtech). IC50 values were obtained by fitting the percentage of inhibition versus log(inhibitor concentration) using GraphPad software 7.0. The covalent modification of the flavin upon the reaction with the propargylamine-containing inhibitors was monitored spectrophotometrically using a diode array UV/visible spectrophotometer (Agilent Technologies). […] The cofactor covalent modification was monitored over time following the shift of the enzyme-bound flavin (peaks at 370 and 456 nm) to 410 nm (ε410 = 23,500 M^–1 cm^–1) (Figure S10).

Data set [2] deals with BV2 cells. In words: ROS detection with CellROX Deep Red in BV2 cells. The class given is cell-based, murine. To be noted: 10 μM, LPS/IFN-γ stimulation, 48 h. The protocol:
BV2 murine microglial cells were cultured in DMEM supplemented with 10% heat-inactivated FBS, 100 IU/mL penicillin G, […] streptomycin, and […] amphotericin B and grown at 37 °C in 5% CO2 and a humidified atmosphere. […] After 30 min, LPS 100 ng/mL and IFN-γ 20 ng/mL were added to the medium for an additional 48 h. After treatment, BV2 cells were incubated with a CellROX Deep Red reagent (cat. no. C10422) at 5 μM and incubated for 30 min at 37 °C as indicated by the manufacturer protocol. ROS levels were measured by a spectrofluorometer, taking as 100% the median fluorescence intensity of cells treated with the vehicle.

Another data set has as its target T2, human MAOA (Homo sapiens, UniProt P21397).
T2 construct: made in house; host or cells: Pichia pastoris
T2 sequence (P21397 1-527): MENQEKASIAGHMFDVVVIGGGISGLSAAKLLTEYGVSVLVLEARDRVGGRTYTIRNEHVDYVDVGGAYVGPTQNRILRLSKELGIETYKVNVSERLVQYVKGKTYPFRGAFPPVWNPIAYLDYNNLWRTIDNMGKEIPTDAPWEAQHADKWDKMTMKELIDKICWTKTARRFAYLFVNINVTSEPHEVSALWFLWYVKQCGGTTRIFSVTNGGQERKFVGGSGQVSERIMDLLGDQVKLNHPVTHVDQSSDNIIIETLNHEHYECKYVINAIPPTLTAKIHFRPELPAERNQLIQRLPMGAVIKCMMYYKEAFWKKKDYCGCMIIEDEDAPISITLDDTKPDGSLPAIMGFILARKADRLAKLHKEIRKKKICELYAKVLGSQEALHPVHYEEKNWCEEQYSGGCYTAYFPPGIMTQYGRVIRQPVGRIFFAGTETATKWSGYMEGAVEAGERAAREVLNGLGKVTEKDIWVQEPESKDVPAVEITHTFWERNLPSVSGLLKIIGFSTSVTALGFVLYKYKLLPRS
In words: Purified MAOA, Amplex Red/horseradish peroxidase coupled assay. The class given is biochemical. To be noted: 70 nM MAOA, 1 mM kynuramine. The protocol:
as §1

Data set [3] has as its system BV2 cells. In words: qRT-PCR of iNOS, IL-1β and IL-6 transcripts in BV2 cells. It counts as cell-based, murine. The following applies: cells pre-stimulated with LPS/IFN-γ for 24h, then 10 µM compound for 24 h. The protocol:
BV2 murine microglial cells were cultured in DMEM supplemented with 10% heat-inactivated FBS, 100 IU/mL penicillin G, […] streptomycin, and […] amphotericin B and grown at 37 °C in 5% CO2 and a humidified atmosphere. […]
BV2 cells were lysed in a Trizol reagent for isolation of RNA. A reverse transcription reaction was performed in a thermocycler (MJMini personal thermal cycler; Biorad) using an IScript Reverse Transcription Supermix (Biorad) according to the manufacturer’s protocol, under the following conditions: incubation at 25 ° C for 5 min, reverse transcription at 42 ° C for 30 min, and inactivation at 85 ° C for 5 min. Real-time PCR (rtPCR) was carried out in an I-Cycler IQ Multicolor rtPCR detection system (Biorad) using a SsoFast EvaGreen Supermix (Biorad) according to the manufacturer’s instructions. The PCR protocol consisted of 40 cycles of denaturation at 95 ° C for 30 s and annealing/extension at 60 ° C for 30 s. For quantification analysis, the comparative threshold cycle (Ct) method was used. The Ct values from each gene were normalized to the Ct value of GAPDH in the same RNA samples. Relative quantification was performed using the 2^–ΔΔCt method (Schmittgen and Livak, 2008) and expressed as a fold change in arbitrary values. Primers used are as follows: • iNOS fw: […]; rev: […]. • IL-1β fw: […]; rev: […]. • IL-6 fw: […]; rev: […].
Background: Real-time PCR tracks product formation cycle by cycle.

Another data set has as its system monocytic U937. Also on record: method as in PMID 37884805. To be noted: cited from earlier work.
The subject of data set [4] is BV2 cells. Kind of data set: MTT viability assay in BV2 cells. It counts as cell-based, murine. To be noted: 10 μM, LPS/IFN-γ stimulation, 48 h.
Procedure: BV2 murine microglial cells were cultured in DMEM supplemented with 10% heat-inactivated FBS, 100 IU/mL penicillin G, 100 mg/mL streptomycin, and 2.5 mg/mL amphotericin B and grown at 37 °C in 5% CO2 and a humidified atmosphere. […] After 30 min, LPS 100 ng/mL and IFN-γ 20 ng/mL were added to the medium for an additional 48 h.
Cell viability was determined by the MTT assay. Briefly, MTT (dissolved in PBS with a final concentration of 0.5 mg/mL) was added to the medium culture. After 2 h of incubation, the cells were mixed with DMSO and shaken for 10 min. Finally, the absorption of the samples was read by regulating the 570 nm filter as the main wavelength and the 630 nm filter as the referenced wavelength. The blank was subtracted from all samples to obtain pure cellular absorption. Results are expressed as the percentage of cell survival, taking 100% of the cells treated with the vehicle.
The next data set deals with Purified MAOA. The following applies: read-out: IC50 Purified MAOA; cited from earlier work.
Another data set deals with Purified MAOB. To be noted: read-out: IC50 Purified MAOB; cited from earlier work.

With `Clc1ncnc2c1nnn2Cc1ccccc1` [Compound 3, 3-Benzyl-7-chloro-3H-[1,2,3]triazolo[4,5-d]pyrimidine], the “% INHIBITION csNOX5 DEHYDROGENASE DOMAIN” value in data set [1] is on record as 23.4 ± 4.8^b %.
As a reminder, the IC50 is the midpoint of a concentration-inhibition curve. In the case of `c1ccc(Cn2nnc3c(Sc4ncco4)ncnc32)cc1` [VAS3947], the IC50 was 30.5 µM with NOX4, 86.8 µM in the data set on NOX1, 5.6 µM at NOX2 and 39.2 µM in the data set with NOX5.
In the case of `c1ccc(Cn2nnc3c(Sc4nc5ccccc5o4)ncnc32)cc1` [VAS2870, 3-benzyl-7-(2-benzoxazolyl)thio-1,2,3-triazolo[4,5-d]pyrimidine, reference compound], at human MAOB, the IC50 was above 100 µM and the “IC50 Purified MAOB” value is “ineffective; also recorded: Not detected”. The “ROS levels in BV2 cells” value with BV2 cells [2] is reported as “decrease the ROS levels”. Further, on human MAOA, the IC50 is above 100 µM and the “IC50 Purified MAOA” value is recorded as “ineffective; also recorded: Not detected”. The “effects on iNOS, IL-1β and IL-6 mRNA without inhibitor pretreatment” value in the data set on BV2 cells [3] is “negligible”.
In the case of `c1ccc(-c2cc(NC3CCNCC3)nc3ccccc23)cc1` [MC4876], the “viability of monocytic U937 and other myeloid cancer lines” value in the data set on monocytic U937 was “reduced the viability”.
As to `C#CCN[C@@H]1CCc2ccccc21` [Rasagiline, reference compound], the BV2 cell viability entry with BV2 cells [4] was “negligible effects on cells viability”. Also, the “ROS levels in BV2 cells” value in the data set on BV2 cells [2] is “decrease the ROS levels”. Further, the IC50 with Purified MAOA is 0.7 µM; in the data set on Purified MAOB it was 0.014 µM.
On to `O=C1c2ccccc2-c2cc(N3CCC4(CC3)OCCO4)nc3cccc1c23` [Compound M41], for which the “viability of monocytic U937 and other myeloid cancer lines” value with monocytic U937 is given as “reduced the viability”.
